Measured values as given in PMC3063489 (Molecular and biochemical parasitology, 2011).
Where two headings read alike, the source gives them in different places.

Legend:
[1] = target: GFP-SmDAT (Schistosoma mansoni, UniProt E9LD23); type: cell-based; conditions: COS-7 cells; for uptake of tritiated substrate by SmDAT: 100 nM of each substrate, normalized to dopamine uptake (Fig. 2A)
[2] = system: Schistosoma mansoni adult worms; conditions: adult worms treated with dopamine; cited from earlier work
[3] = target: hDAT (Homo sapiens, UniProt Q01959); conditions: COS-7 cells
[4] = system: Schistosoma; conditions: cited from earlier work

hDAT, sequence (Q01959 whole entry): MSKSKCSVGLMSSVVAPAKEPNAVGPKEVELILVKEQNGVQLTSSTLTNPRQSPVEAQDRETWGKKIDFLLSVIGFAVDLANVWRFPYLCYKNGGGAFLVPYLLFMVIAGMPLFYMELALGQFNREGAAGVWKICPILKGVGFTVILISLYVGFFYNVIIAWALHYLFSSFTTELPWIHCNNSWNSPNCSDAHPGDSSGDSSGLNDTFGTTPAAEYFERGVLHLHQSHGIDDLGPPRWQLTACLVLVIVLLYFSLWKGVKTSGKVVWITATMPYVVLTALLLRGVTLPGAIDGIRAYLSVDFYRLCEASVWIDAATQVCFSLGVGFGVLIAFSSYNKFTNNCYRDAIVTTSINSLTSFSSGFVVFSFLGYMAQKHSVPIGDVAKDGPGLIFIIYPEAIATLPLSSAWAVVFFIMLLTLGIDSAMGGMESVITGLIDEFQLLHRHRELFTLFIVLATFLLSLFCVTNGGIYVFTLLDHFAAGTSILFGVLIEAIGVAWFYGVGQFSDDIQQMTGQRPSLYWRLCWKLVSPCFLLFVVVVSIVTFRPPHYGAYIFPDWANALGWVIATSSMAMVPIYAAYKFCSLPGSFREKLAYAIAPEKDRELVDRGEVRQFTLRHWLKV

With NC[C@H](O)c1ccc(O)c(O)c1 [Norepinephrine] the “uptake of tritiated substrate by SmDAT” value [1] was “low but significant levels”.

For NCCc1ccc(O)c(O)c1 [dopamine], the “effect on adult worms” value [2] is given as “relaxation of muscles and a lengthening of the worms”, the “Vmax of dopamine uptake, GFP-SmDAT” value [1] is given as 0.16 ± 0.04 pmol/well/min and the “Vmax of dopamine uptake, GFP-SmDAT” value ([1]; unit as printed in legend of Fig. 2) is given as 0.16 ± 0.04 pmol/min. The “Vmax of dopamine uptake, hDAT” value [3] was 0.9 ± 0.2 pmol/well/min.

In the case of O=C(C1CCCCC1)N1CC(=O)N2CCc3ccccc3C2C1 (stereo not shown) [praziquantel], the “activity on immature worms and eggs” value [4] is listed as “not active”.

With NCCc1c[nH]c2ccc(O)cc12 [serotonin] the “uptake of tritiated substrate by SmDAT” value [1] was “could not detect any detectable levels”.
